Laboratory results from the C3SDB collision cross section collection.

details: [M+H]+; instrument: TW

SMILES	collision cross section (N2) [Å²]
C=CCOC(=O)C(C)(C)OC(=O)c1cc(-n2c(=O)cc(C(F)(F)F)n(C)c2=O)ccc1Cl [Butafenacil]	208.59
CCC(C)(CC)c1cc(NC(=O)c2c(OC)cccc2OC)on1 [Isoxaben]	184.93

details: [M+H]+; instrument: DT; single field, calibrated with Agilent tune mix (Agilent)

collision cross section (N2) [Å²]	SMILES
293.6	CCCCC/C=C\C/C=C\C/C=C\C/C=C\CCCCCC(=O)O[C@H](COC(=O)CCCC/C=C\C/C=C\C/C=C\CCCCC)COP(=O)([O-])OCC[N+](C)(C)C [PC(40:7)]
288.2	CC/C=C\C/C=C\C/C=C\C/C=C\CCCCC(=O)O[C@H](COC(=O)CCCCCC/C=C\C/C=C\C/C=C\CCCCC)COP(=O)([O-])OCC[N+](C)(C)C [PC(38:7)]
295	CCCCC/C=C\C/C=C\CCCCCCCCCC(=O)O[C@H](COC(=O)CCCCCCCCC/C=C\CCCCCC)COP(=O)([O-])OCC[N+](C)(C)C [PC(38:3)]
284.5	CCCCC/C=C\C/C=C\C/C=C\C/C=C\C/C=C\CCC(=O)O[C@H](COC(=O)CCCCCCCCCCCCC)COP(=O)([O-])OCC[N+](C)(C)C [PC(36:5)]

Further lines, the molecule ahead of its results:

SMILES	collision cross section (N2) [Å²]
CCCCCCCCCC/C=C\CCCCCCCCCC(=O)O[C@H](COC(=O)CCCCCCCCCCCCC)COP(=O)(O)OCCN [PE(36:1)]	281.3
CC/C=C\C/C=C\C/C=C\C/C=C\CCCCC(=O)OC[C@H](COP(=O)(O)O[C@H]1C(O)C(O)C(O)[C@@H](O)C1O)OC(=O)CCCCCCCCC/C=C\CCCCCCCCCC (some centres undefined) [PI(40:5)]	307.1

same assay, conditions: [M+NH4]+; instrument: DT; single field, calibrated with Agilent tune mix (Agilent)

collision cross section (N2) [Å²]	SMILES
279.1	CCCCC/C=C\C/C=C\C/C=C\CCCCC(=O)O[C@H](COC(=O)CCCCCCCCC/C=C\CCCCCCCC)COP(=O)(O)O [PA(38:4)]
308.6	CC/C=C\C/C=C\C/C=C\C/C=C\CCCCC(=O)OC[C@H](COP(=O)(O)O[C@H]1C(O)C(O)C(O)[C@@H](O)C1O)OC(=O)CCCCCCCCC/C=C\CCCCCCCCCC (some centres undefined) [PI(40:5)]

same assay, conditions: [M+Na]+; instrument: DT; single field, calibrated with Agilent tune mix (Agilent)

collision cross section (N2) [Å²]	SMILES
283.6	CC/C=C\C/C=C\C/C=C\C/C=C\CCCCC(=O)OC[C@H](COP(=O)(O)OCCN)OC(=O)CCCCCCCCC/C=C\C/C=C\CCCCC [PE(38:6)]
287.5	CCCCCCCCCC/C=C\CCCCCCCCCC(=O)O[C@H](COC(=O)CCCCCCCCCCCCC)COP(=O)(O)OCCN [PE(36:1)]
287.3	CC/C=C\C/C=C\C/C=C\C/C=C\CCCCC(=O)OC[C@H](COP(=O)(O)OCCN)OC(=O)CCCCC/C=C\C/C=C\C/C=C\C/C=C\CCCCC [PE(40:8)]
305.8	CC/C=C\C/C=C\C/C=C\C/C=C\CCCCC(=O)OC[C@H](COP(=O)(O)O[C@H]1C(O)C(O)C(O)[C@@H](O)C1O)OC(=O)CCCCCCCCC/C=C\CCCCCCCCCC (some centres undefined) [PI(40:5)]
281.2	CCCCC/C=C\C/C=C\C/C=C\CCCCCCC(=O)O[C@H](COC(=O)CCCCCCC/C=C\CCCCCC)COP(=O)(O)OCCN [PE(36:4)]

same assay, conditions: [M-H]-; instrument: DT; single field, calibrated with Agilent tune mix (Agilent)

collision cross section (N2) [Å²]	SMILES
269.8	CC/C=C\C/C=C\C/C=C\C/C=C\CCCCC(=O)OC[C@H](COP(=O)(O)OCCN)OC(=O)CCCCCCCCC/C=C\C/C=C\CCCCC [PE(38:6)]
264.3	CCCCC/C=C\C/C=C\C/C=C\CCCCC(=O)O[C@H](COC(=O)CCCCCCCCC/C=C\CCCCCCCC)COP(=O)(O)O [PA(38:4)]

The remaining lines, values behind:

SMILES	collision cross section (N2) [Å²]
CCCCCCCCCC/C=C\CCCCCCCCCC(=O)O[C@H](COC(=O)CCCCCCCCCCCCC)COP(=O)(O)OCCN [PE(36:1)]	269.9
CC/C=C\C/C=C\C/C=C\CCCCCCCC(=O)O[C@H](CO/C=C\CCCCCCCCCCCCCCCC)COP(=O)(O)OCCN [PE(p36:3)]	265.6
CC/C=C\C/C=C\C/C=C\C/C=C\CCCCC(=O)OC[C@H](COP(=O)(O)O[C@H]1C(O)C(O)C(O)[C@@H](O)C1O)OC(=O)CCCCCCCCC/C=C\CCCCCCCCCC (some centres undefined) [PI(40:5)]	297.7
CCCCC/C=C\C/C=C\C/C=C\CCCCCCC(=O)O[C@H](COC(=O)CCCCCCC/C=C\CCCCCC)COP(=O)(O)OCCN [PE(36:4)]	265.2
CC/C=C\C/C=C\C/C=C\C/C=C\C/C=C\CCCC(=O)O[C@H](CO/C=C\CCCCCCCCCCCCCCCCCC)COP(=O)(O)OCCN [PE(p40:5)]	276.1

details: [M+K]+; instrument: DT; stepped-field

collision cross section (N2) [Å²]	SMILES
288.7	CC/C=C\C/C=C\C/C=C\C/C=C\CCCCC(=O)OC[C@H](COP(=O)(O)OCCN)OC(=O)CCCCCCCCC/C=C\C/C=C\CCCCC [PE(38:6)]

same assay, conditions: [M+Na]+; instrument: DT; stepped-field

collision cross section (N2) [Å²]	SMILES
285	CC/C=C\C/C=C\C/C=C\C/C=C\CCCCC(=O)OC[C@H](COP(=O)(O)OCCN)OC(=O)CCCCCCCCC/C=C\C/C=C\CCCCC [PE(38:6)]
288.5	CCCCCCCCCC/C=C\CCCCCCCCCC(=O)O[C@H](COC(=O)CCCCCCCCCCCCC)COP(=O)(O)OCCN [PE(36:1)]
289.2	CC/C=C\C/C=C\C/C=C\C/C=C\CCCCC(=O)OC[C@H](COP(=O)(O)OCCN)OC(=O)CCCCC/C=C\C/C=C\C/C=C\C/C=C\CCCCC [PE(40:8)]
280.6	CCCCC/C=C\C/C=C\C/C=C\CCCCCCC(=O)O[C@H](COC(=O)CCCCCCC/C=C\CCCCCC)COP(=O)(O)OCCN [PE(36:4)]

details: [M+CH3COO]-; instrument: TW; calibrated with phosphatidylcholines (ESI+) and phosphatidylethanolamines (ESI-)

collision cross section (N2) [Å²]	SMILES
296.7	CCCCC/C=C\C/C=C\CCCCCCCCCC(=O)O[C@H](COC(=O)CCCCCCCCC/C=C\CCCCCC)COP(=O)([O-])OCC[N+](C)(C)C [PC(38:3)]

same assay, conditions: [M+H]+; instrument: TW; calibrated with phosphatidylcholines (ESI+) and phosphatidylethanolamines (ESI-)

collision cross section (N2) [Å²]	SMILES
275.7	CC/C=C\C/C=C\C/C=C\C/C=C\CCCCC(=O)OC[C@H](COP(=O)(O)OCCN)OC(=O)CCCCCCCCC/C=C\C/C=C\CCCCC [PE(38:6)]
293.2	CCCCC/C=C\C/C=C\C/C=C\C/C=C\CCCCCC(=O)O[C@H](COC(=O)CCCC/C=C\C/C=C\C/C=C\CCCCC)COP(=O)([O-])OCC[N+](C)(C)C [PC(40:7)]
286.5	CC/C=C\C/C=C\C/C=C\C/C=C\CCCCC(=O)O[C@H](COC(=O)CCCCCC/C=C\C/C=C\C/C=C\CCCCC)COP(=O)([O-])OCC[N+](C)(C)C [PC(38:7)]
291.9	CCCCC/C=C\C/C=C\CCCCCCCCCC(=O)O[C@H](COC(=O)CCCCCCCCC/C=C\CCCCCC)COP(=O)([O-])OCC[N+](C)(C)C [PC(38:3)]
284.1	CCCCC/C=C\C/C=C\C/C=C\C/C=C\C/C=C\CCC(=O)O[C@H](COC(=O)CCCCCCCCCCCCC)COP(=O)([O-])OCC[N+](C)(C)C [PC(36:5)]

Second part, the molecule before the results:

SMILES	collision cross section (N2) [Å²]
CCCCCCCCCC/C=C\CCCCCCCCCC(=O)O[C@H](COC(=O)CCCCCCCCCCCCC)COP(=O)(O)OCCN [PE(36:1)]	278.7
CC/C=C\C/C=C\C/C=C\C/C=C\CCCCC(=O)OC[C@H](COP(=O)(O)OCCN)OC(=O)CCCCC/C=C\C/C=C\C/C=C\C/C=C\CCCCC [PE(40:8)]	280.7
CC/C=C\C/C=C\C/C=C\C/C=C\C/C=C\CCCC(=O)O[C@H](CO/C=C\CCCCCCCCCCCCCCCCCC)COP(=O)(O)OCCN [PE(p40:5)]	284.7

same assay, conditions: [M+Na]+; instrument: TW; calibrated with phosphatidylcholines (ESI+) and phosphatidylethanolamines (ESI-)

collision cross section (N2) [Å²]	SMILES
301.1	CC/C=C\C/C=C\C/C=C\C/C=C\CCCCC(=O)OC[C@H](COP(=O)(O)O[C@H]1C(O)C(O)C(O)[C@@H](O)C1O)OC(=O)CCCCCCCCC/C=C\CCCCCCCCCC (some centres undefined) [PI(40:5)]

same assay, conditions: [M-H]-; instrument: TW; calibrated with phosphatidylcholines (ESI+) and phosphatidylethanolamines (ESI-)

collision cross section (N2) [Å²]	SMILES
269.2	CC/C=C\C/C=C\C/C=C\C/C=C\CCCCC(=O)OC[C@H](COP(=O)(O)OCCN)OC(=O)CCCCCCCCC/C=C\C/C=C\CCCCC [PE(38:6)]
263.4	CCCCC/C=C\C/C=C\C/C=C\CCCCC(=O)O[C@H](COC(=O)CCCCCCCCC/C=C\CCCCCCCC)COP(=O)(O)O [PA(38:4)]

Further lines, the molecule ahead of its results:

SMILES	collision cross section (N2) [Å²]
CCCCCCCCCC/C=C\CCCCCCCCCC(=O)O[C@H](COC(=O)CCCCCCCCCCCCC)COP(=O)(O)OCCN [PE(36:1)]	268.8
CC/C=C\C/C=C\C/C=C\CCCCCCCC(=O)O[C@H](CO/C=C\CCCCCCCCCCCCCCCC)COP(=O)(O)OCCN [PE(p36:3)]	265.2
CC/C=C\C/C=C\C/C=C\C/C=C\CCCCC(=O)OC[C@H](COP(=O)(O)O[C@H]1C(O)C(O)C(O)[C@@H](O)C1O)OC(=O)CCCCCCCCC/C=C\CCCCCCCCCC (some centres undefined) [PI(40:5)]	296.5
CCCCC/C=C\C/C=C\C/C=C\CCCCCCC(=O)O[C@H](COC(=O)CCCCCCC/C=C\CCCCCC)COP(=O)(O)OCCN [PE(36:4)]	265.7
CC/C=C\C/C=C\C/C=C\C/C=C\C/C=C\CCCC(=O)O[C@H](CO/C=C\CCCCCCCCCCCCCCCCCC)COP(=O)(O)OCCN [PE(p40:5)]	274.8
